Assay results as given in US20080125488A1, “Lactate Containing Pharmaceutical Composition and Uses Thereof” (priority 2003, published 2008).

Experiments:
[1] = test system: patients suffering from brain injury (brain trauma) with increased intracranial pressure; experiment: Treatment of increased intracranial pressure caused by brain trauma; type: in vivo, human
Description: For this purpose, the composition of the invention or the mannitol was administered (infused) to a group of each twelve patients and the ICP was measured every 15 minutes.
The results of this study, in which 12 patients were either treated with mannitol or the hypertonic lactate solution of the invention, are shown in FIGS. 1 to 4 as well as in Tables 2 to 5.

isolated rat hearts = experiment: In vitro model for ischemia (perfused isolated rat hearts); conditions: 5 mM lactate
Description: In order to determine the suitability of lactate for the treatment of conditions such as ischemia-reperfusion, isolated rat harts were perfused either with perfusion medium containing 5 mM lactate or with a perfusion medium (control) containing 0.2 mM of hexanoic acid and 5.5 mM glucose in accordance with the protocol described by Garnier A. et al., J Mol Cell Cardiol 1996, 28, 1671-1682.

Row | Compound | CPP after treatment ([1]; after treatment) [mm Hg] | ICP after treatment ([1]; after treatment) [mm Hg] | CPP before treatment ([1]; before treatment) [mm Hg] | ICP before treatment ([1]; before treatment, mean ± sem) [mm Hg] | number of survival ([1]; brain trauma patients, survivors out of group) | number of successful treatment (only first treatment) ([1]; first treatment only) | patients that survived the brain trauma ([1]; groups of 12 patients (FIG. 2)) | number of successful treatment (all treatments) ([1]; out of all ICH episodes treated) | number of cross over ([1]; patients switched to the other treatment after failure) | decrease in the intracranial pressure ([1]; within the first 30 minutes after the treatment (FIG. 1)) | ICP as share of the initial untreated ICP ([1]; within the next 3.5 hours after the treatment (rebound, FIG. 1)) | rate pressure product (isolated rat hearts; 40 minutes perfusion after 40 minutes ischemia, compared to control (FIG. 9A)) | heart rate (isolated rat hearts; 40 minutes perfusion after 40 minutes ischemia, compared to control (FIG. 9C)) | diastolic pressure (isolated rat hearts; compared to control (FIG. 9B))
1 | OC[C@@H](O)[C@@H](O)[C@H](O)[C@H](O)CO [mannitol] | 73.2 ± 2.4 | 25.7 ± 1.7 | 67.6 ± 2.2 | 31 ± 1.8 | 7 out of 11 | 5 out of 11 | 7 | 14 out of 25 | 4 out of 11 | about 20% | about 90% | – | – | –
2 | CC(O)C(=O)O (centres unmarked) [lactate] | – | – | – | – | – | – | – | – | – | – | – | significantly higher and prolonged increase | significantly higher and prolonged increase | significantly decreased
